The test system of assay [1] is SUM149, SUM149R, SUM159, and SUM159R cells. In words: Synergy studies (ATPlite, combination indices, isobolograms). In kind it is cell-based, human. On the procedure: SUM149, SUM149R, SUM159, and SUM159R cells were seeded in sterile, white, opaque 384-well microtiter plates (Thermo), using an automated dispensing system (BioTek EL406), at 1,000 cells per well in 50 μl of media. Drugs were delivered in DMSO by robotic pin transfer with a JANUS workstation (100 nl) to achieve a matrix of pairwise dose-response incubations of each compound, each pair having eight replicates. Following 72 hours of incubation, ATP levels were determined for treated cells and vehicle controls (ATPlite, PerkinElmer). Data were normalized to vehicle controls. Combination indices were determined using the median-effect principle of Chou and Talalay^49 (CalcuSyn Software). Isobologram plots were generated with GraphPad Prism software. Points represent paired values of drug concentrations assessed for synergism. The diagonal line signifies drug additivity. Points above the line represent antagonistic drug combinations, and those below the line represent synergistic drug combinations. Synergy assays were performed in triplicates and repeated 2-3 times.
Background: ATP-based viability assays read luminescence as a measure of living cells.

The subject of assay [2] is xenografts derived from SUM159R cells. The assay can be described thus: Xenograft assay, SUM159R (BBI-resistant SUM159). As to conditions: administered along with JQ1. In kind it is in vivo, mice. The protocol: (§1) For xenograft assays 5-6-weeks old female CrTac:NCr-Foxn1^nu and NOD.Cg-Prkdc^scid Il2rg^tm1Sug/JicTac mice were purchased from Taconic. Tumors were induced by bilateral orthotopic mammary fat pad injection of 1×10^6 cells in 50% Matrigel (BD Biosciences) in DMEM/F12 or Medium 171 (except for IDC50-X cells, which were injected with 3% FBS and 4 mg/ml collagen gel in Medium 171). Animal experiments were conducted following protocol 11-023 approved by the Dana-Farber Cancer Institute Animal Care and Use Committee.

In assay [3] the test system is tumors derived from BBI-resistant SUM149 cells. In words: Xenograft assay, BBI-resistant SUM149. As to conditions: administered along with JQ1. In kind it is in vivo, mice. The protocol:
as §1

The test system of assay [4] is BRD4-MED1 association in SUM159R cells. The assay can be described thus: BRD4 immunoprecipitation followed by immunoblot for MED1, resistant cells. As to conditions: SUM159R, 3 hrs treatment. It counts as cell-based, human. On the procedure: Cells were lysed five days after transfection with siRNAs in RIPA buffer. Proteins were resolved in SDS-polyacrylamide gels (4%-12%) and transferred to PVDF membranes by using a Tris-glycine buffer system. […] Cells were incubated on ice for 15 min and gently vortexed every 5 min. […] After centrifugation of the lysates at 14 g for 10 min at 4° C., supernatant was diluted with 0.6 ml buffer A, and added NP-40 to final 0.5% and treated with DNase I. The samples were then incubated at 4° C. overnight with BRD4 or Flag antibodies at 1:100 dilution and immunoprecipitates were collected on Dynabeads Protein G for 2 hr. Beads were washed with buffer B containing 150 mM NaCl and 0.5% NP-40 three times and then resuspended in gel loading buffer. Immunoblotting and immunoprecipitation experiments were repeated 2-3 times.
On the technique in general: A western blot detects proteins with antibodies after separation by electrophoresis.

Another assay deals with phospho-BRD4 (pBRD4). The assay can be described thus: Immunoblot analysis of phospho-BRD4. In kind it is cell-based, human. As to conditions: SUM159R, SUM149R, and other cell lines; short-term treatment. An excerpt:
Immunoblotting and immunoprecipitation experiments were repeated 2-3 times.

The test system of assay [5] is MDR (multi drug resistance) pumps in SUM159 and SUM159R cells. In words: Multi-Drug Resistance (MDR) assay. It counts as cell-based, human. As to conditions: with JQ1. The protocol: Cell viability and growth assays (FIGS. 1A-1B, FIGS. 3A-3E, 3G, FIGS. 5D-5F, FIGS. 6C, 6E, 6I, FIG. 7A, FIG. 10D, FIGS. 14A-14C), cycle, apoptosis, and MDR assays were performed in triplicates and repeated 2-3 times. For cell proliferation assays, cells were plated at 500 cells per well in 96-well plates and treated the next day with inhibitors, DMSO or doxycycline (500 ng). Cells were cultured at 37° C. with 5% CO2 in the media described-above, and cell viability was measured using CellTiter-Glo three days after treatments. For cell growth assays, cells were plated at 5000 (SUM159) or 20000 (SUM149) cells per well in 6-well plates and treated the next day with inhibitors. Cells were counted every three days by cell counter. Cellular apoptosis was analyzed with an APC AnnexinV/7ADD Apoptosis Detection kit (BD Pharmingen). AnnexinV/7AAD assessments and cell cycle graphics were generated using FlowJo software V7.6.1 for Windows (Tree Star). Senescence Beta-gal staining was performed using Senescence β-Galactosidase staining kit from Cell signaling. Briefly, after JQ1 treatment (500 nM) for 72 h, SUM159 and MDA-MB-231 cells were fixed by Fixative Solution for 15 min, followed by β-Galactosidase solution incubation overnight at 37° C. The staining was checked under microscope for the development of blue color. […]

Setting [6] is: summary statement, resistant cells.

On to `CN(C)CC[C@H](CSc1ccccc1)Nc1ccc(S(=O)(=O)NC(=O)c2ccc(N3CCN(Cc4ccccc4-c4ccc(Cl)cc4)CC3)cc2)cc1[N+](=O)[O-]` [ABT737, 4-[4-[[2-(4-chlorophenyl)phenyl]methyl]piperazin-1-yl]-N-[4-[[(2R)-4-(dimethylamino)-1-phenylsulfanylbutan-2-yl]amino]-3-nitrophenyl] sulfonylbenzamide], for which the “Synergy with JQ1” value in assay [1] (setting [6]) is “substantial synergy”; in assay [1] (synergy screens, 72 hours), “Significant synergy”.
For the molecule `CC1(C)CCC(CN2CCN(c3ccc(C(=O)NS(=O)(=O)c4ccc(NCC5CCOCC5)c([N+](=O)[O-])c4)c(Oc4cnc5[nH]ccc5c4)c3)CC2)=C(c2ccc(Cl)cc2)C1` [ABT 199, 4-[4-[[2-(4-chlorophenyl)-4,4-dimethylcyclohexen-1-yl]methyl]piperazin-1-yl]-N-[3-nitro-4-(oxan-4-ylmethylamino)phenyl]sulfonyl-2-(1H-pyrrolo[2,3-b]pyridin-5-yloxy)benzamide], the Tumor weight result in assay [2] was “reduced tumor weight to a greater extent than the corresponding single therapy and JQ1 alone”; in assay [3], “reduced tumor weight to a greater extent than the corresponding single therapy and JQ1 alone”. The “Synergy with JQ1” value in assay [1] (setting [6]) was “substantial synergy”.
On to `CC1(C)CCC(c2ccc(Cl)cc2)=C(CN2CCN(c3ccc(C(=O)NS(=O)(=O)c4ccc(N[C@H](CCN5CCOCC5)CSc5ccccc5)c(S(=O)(=O)C(F)(F)F)c4)cc3)CC2)C1` [ABT 263, 4-[4-[[2-(4-chlorophenyl)-5,5-dimethylcyclohexen-1-yl]methyl]piperazin-1-yl]-N-[4-[[(2R)-4-morpholin-4-yl-1-phenylsulfanylbutan-2-yl]amino]-3-(trifluoromethylsulfonyl)phenyl]sulfonylbenzamide], for which the Tumor weight result is “reduced tumor weight to a greater extent than the corresponding single therapy and JQ1 alone” in assay [2]; “reduced tumor weight to a greater extent than the corresponding single therapy and JQ1 alone” in assay [3]. Moreover, the “Synergy with JQ1” value in assay [1] (setting [6]) is given as “substantial synergy”.
In the case of `O=C(O)c1ccc2c(c1)nc(Nc1cccc(Cl)c1)c1ccncc12` [CX-4945, 5-(3-chloroanilino)benzo[c][2,6]naphthyridine-8-carboxylic acid], the “Synergy with JQ1” value is “substantial synergy” in assay [1] (setting [6]) and “Significant synergy” in assay [1] (synergy screens, 72 hours).
Turning to `N#CC[C@H](C1CCCC1)n1cc(-c2ncnc3[nH]ccc23)cn1` [INC424], the Tumor weight result in assay [2] was “reduced tumor weight to a greater extent than the corresponding single therapy and JQ1 alone”; in assay [3] it was “reduced tumor weight to a greater extent than the corresponding single therapy and JQ1 alone”.
For `OCCN1CCN(CCCN2c3ccccc3Sc3ccc(Cl)cc32)CC1` [perphenazine], the “Synergy with JQ1” value is “substantial synergy” in assay [1] (setting [6]) and “Significant synergy” in assay [1] (synergy screens, 72 hours).
As to `c1ccc2c(c1)Nc1ccccc1S2` [phenothiazine], in assay [4], the “MED1 abundance in BRD4 immunoprecipitation” value is listed as “decreased MED1 abundance”. For the same molecule, the pBRD4 levels result in the assay on phospho-BRD4 (pBRD4) was “rapid dephosphorylation of BRD4”.
Consider `COc1ccc(CCN(C)CCCC(C#N)(c2ccc(OC)c(OC)c2)C(C)C)cc1OC` (centres unmarked) [verapamil], for which the “Effect of co-incubation with MDR1 inhibitor on BBI-resistance” value in assay [5] was “had no effect”.

The record behind these values is patent US11666580B2, “Mechanism of resistance to bet bromodomain inhibitors” (Dana-Farber Cancer Institute, Inc., priority 2015, dated 2023).
